This note sets out measurements from patent publication US20230399312A1, “SUBSTITUTED PYRIMIDINES AND METHODS OF USE” (THERAVANCE BIOPHARMA R&D IP, LLC, priority 2020, published 2023).

Assay [1] deals with TGF-β-stimulated SMAD3 phosphorylation in BEAS-2B cells. Kind of assay: Cellular ALK5 potency assay, inhibition of TGF-β stimulated pSMAD3 formation in BEAS-2B cells. The assay is classed as cell-based. The conditions noted are these: Homo sapiens, pSMAD3, TGF-β 10 ng/mL, read-out: BEAS2B pIC50 (converted). The gist of the method: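 Human lung epithelial BEAS-2B cells were pre-treated with compound for 1 h at 37 °C, then stimulated with TGF-β (final 10 ng/mL) for 30 min before lysis. pSMAD3 was quantified by AlphaLISA and pIC50 derived from dose-dependent signal change versus TGF-β-stimulated untreated cells.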

In assay [2] the target is T1, recombinant human ALK5 (TGF-βR1) protein (Homo sapiens, UniProt P36897).
T1 construct: purchased Life Technologies PR9075A
T1 sequence (P36897 34-503): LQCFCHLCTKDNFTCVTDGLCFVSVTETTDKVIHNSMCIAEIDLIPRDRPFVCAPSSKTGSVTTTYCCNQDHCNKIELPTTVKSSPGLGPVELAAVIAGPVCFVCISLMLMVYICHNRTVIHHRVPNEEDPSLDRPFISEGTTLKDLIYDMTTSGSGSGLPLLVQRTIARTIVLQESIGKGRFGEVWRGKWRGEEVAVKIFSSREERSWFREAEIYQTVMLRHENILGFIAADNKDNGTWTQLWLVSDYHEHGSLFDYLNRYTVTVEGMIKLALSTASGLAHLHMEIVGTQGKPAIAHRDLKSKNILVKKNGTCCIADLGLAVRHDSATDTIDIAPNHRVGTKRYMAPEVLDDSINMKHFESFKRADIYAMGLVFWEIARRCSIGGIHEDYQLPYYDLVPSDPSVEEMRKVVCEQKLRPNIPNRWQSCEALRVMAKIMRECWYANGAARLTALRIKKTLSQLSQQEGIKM
Nature of the assay: Biochemical ALK5 (TGF-βR1) assay to measure pKi (LANCE Ultra ULight kinase assay). The conditions noted are these: apparent pKi, converted from pIC50 by Cheng-Prusoff. The gist of the method:
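Enzyme was preincubated with compound for 60 min at room temperature, then ATP (added from a 125 μM 5× stock with 2 mM DTT) started a 60 min reaction at 37 °C. EDTA plus Eu-anti-phospho-Topo2α (Thr1342) antibody stopped it; TR-FRET pIC50 values were converted to pKi by Cheng-Prusoff.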
Background: Time-resolved FRET reads energy transfer from a long-lived donor to a nearby acceptor.

Take `Cc1cccc(-c2nccc(Nc3ccnc(Nc4ccc(C)c(CO)c4)n3)n2)n1` [Compound 61, [2-methyl-5-[[4-[[2-(6-methyl-2-pyridyl)pyrimidin-4-yl]amino]pyrimidin-2-yl]amino]phenyl]methanol]: in assay [1], the IC50 was 25.1 to 158 nM. Further, in assay [2], the Ki is 0.0398 to 0.316 nM.

For `COC(=O)c1ccc(Nc2nccc(Nc3ccnc(-c4cccc(C)n4)n3)n2)cc1` [Compound 62, methyl 4-[[4-[[2-(6-methyl-2-pyridyl)pyrimidin-4-yl]amino]pyrimidin-2-yl]amino]benzoate], the IC50 in assay [1] is 25.1 to 158 nM. Besides, the Ki in assay [2] is 0.398 to 3.16 nM.

Consider `Cc1cccc(-c2nccc(Nc3ccnc(Nc4ccc(S(=O)(=O)N(C)CCN)cc4)n3)n2)n1` [Compound 63, N-(2-aminoethyl)-N-methyl-4-[[4-[[2-(6-methyl-2-pyridyl)pyrimidin-4-yl]amino]pyrimidin-2-yl]amino]benzenesulfonamide], for which the IC50 in assay [1] is 25.1 to 158 nM. In addition, in assay [2], the Ki is 0.0398 to 0.316 nM.

As to `COC[C@H]1CN(Cc2ccc(Nc3nccc(Nc4ccnc(-c5cccc(C)n5)n4)n3)cc2)CCN1` [Compound 64, N2-[4-[[(3R)-3-(methoxymethyl)piperazin-1-yl]methyl]phenyl]-N4-[2-(6-methyl-2-pyridyl)pyrimidin-4-yl]pyrimidine-2,4-diamine], the IC50 in assay [1] is 25.1 to 158 nM. Also, the Ki in assay [2] is 0.0398 to 0.316 nM.

Consider `Cc1cccc(-c2nccc(Nc3ccnc(Nc4ccc(NC[C@H]5CCCN5)cc4)n3)n2)n1` [Compound 65, N4-[2-(6-methyl-2-pyridyl)pyrimidin-4-yl]-N2-[4-[[(2R)-pyrrolidin-2-yl]methylamino]phenyl] pyrimidine-2,4-diamine], for which the IC50 in assay [1] is 25.1 to 158 nM. Besides, the Ki in assay [2] is 0.0398 to 0.316 nM.

As for `Cc1cccc(-c2nccc(Nc3ccnc(Nc4cccc(C(=O)OC5CCNCC5)c4)n3)n2)n1` [Compound 66, 4-piperidyl 3-[[4-[[2-(6-methyl-2-pyridyl)pyrimidin-4-yl]amino]pyrimidin-2-yl]amino]benzoate], in assay [1], the IC50 was 25.1 to 158 nM. Also, the Ki in assay [2] was 0.398 to 3.16 nM.

Consider `Cc1cccc(-c2nccc(Nc3ccnc(Nc4ccc(CN5CCC[C@H](C(=O)OCC6CNC6)C5)cc4)n3)n2)n1` [Compound 67, azetidin-3-ylmethyl (3S)-1-[[4-[[4-[[2-(6-methyl-2-pyridyl)pyrimidin-4-yl]amino]pyrimidin-2-yl]amino]phenyl]methyl] piperidine-3-carboxylate], for which the IC50 in assay [1] was 25.1 to 158 nM. Moreover, the Ki in assay [2] is 0.0398 to 0.316 nM.

In the case of `Cc1cccc(-c2nccc(Nc3ccnc(Nc4ccc(CN5CC(C(=O)O[C@@H]6CCN(C)C6)C5)cc4)n3)n2)n1` [Compound 69, [(3R)-1-methylpyrrolidin-3-yl] 1-[[4-[[4-[[2-(6-methyl-2-pyridyl)pyrimidin-4-yl]amino]pyrimidin-2-yl]amino]phenyl]methyl] azetidine-3-carboxylate], in assay [1], the IC50 was 25.1 to 158 nM. Further, in assay [2], the Ki was 0.0398 to 0.316 nM.

Take `Cc1cccc(-c2nccc(Nc3ccnc(Nc4ccc(S(=O)(=O)NCCN(C)C)cc4)n3)n2)n1` [Compound 70, N-[2-(dimethylamino)ethyl]-4-[[4-[[2-(6-methyl-2-pyridyl)pyrimidin-4-yl]amino]pyrimidin-2-yl]amino]benzenesulfonamide]: in assay [1], the IC50 is 25.1 to 158 nM. Further, the Ki in assay [2] was 0.0398 to 0.316 nM.

Consider `Cc1cccc(-c2nccc(Nc3ccnc(Nc4ccc(N5CCC(C(=O)O)CC5)cc4)n3)n2)n1` [Compound 71, 1-[4-[[4-[[2-(6-methyl-2-pyridyl)pyrimidin-4-yl]amino]pyrimidin-2-yl]amino]phenyl]piperidine-4-carboxylic acid], for which, in assay [1], the IC50 was 25.1 to 158 nM. In addition, the Ki in assay [2] is 0.0398 to 0.316 nM.

In the case of `Cc1cccc(-c2nccc(Nc3ccnc(Nc4cccc(C(=O)N5CCOCC5)c4)n3)n2)n1` [Compound 72, [3-[[4-[[2-(6-methyl-2-pyridyl)pyrimidin-4-yl]amino]pyrimidin-2-yl]amino]phenyl]-morpholino-methanone], in assay [1], the IC50 is 25.1 to 158 nM. For the same compound, in assay [2], the Ki is 0.398 to 3.16 nM.

Take `Cc1cccc(-c2nccc(Nc3ccnc(Nc4ccc(CN5CCC[C@H](C(=O)OCC6CN(C)C6)C5)cc4)n3)n2)n1` [Compound 73, (1-methylazetidin-3-yl)methyl (3S)-1-[[4-[[4-[[2-(6-methyl-2-pyridyl)pyrimidin-4-yl]amino]pyrimidin-2-yl]amino]phenyl]methyl] piperidine-3-carboxylate]: the IC50 in assay [1] is 25.1 to 158 nM. Also, the Ki in assay [2] was 0.0398 to 0.316 nM.

Take `Cc1cccc(-c2nccc(Nc3ccnc(Nc4ccc(CN5CC[C@H](O)C5)cc4)n3)n2)n1` [Compound 74, (3S)-1-[[4-[[4-[[2-(6-methyl-2-pyridyl)pyrimidin-4-yl]amino]pyrimidin-2-yl]amino]phenyl]methyl] pyrrolidin-3-ol]: in assay [1], the IC50 was 25.1 to 158 nM. Besides, the Ki in assay [2] was 0.0398 to 0.316 nM.

On to `Cc1cccc(-c2nccc(Nc3ccnc(Nc4ccc(CN5C[C@H]6CC[C@@H](C5)N6)cc4)n3)n2)n1` [Compound 75, N4-[2-(6-methyl-2-pyridyl)pyrimidin-4-yl]-N2-[4-[[rac-(1S,5R)-3,8-diazabicyclo[3.2.1]octan-3-yl]methyl]phenyl]pyrimidine-2,4-diamine], for which the IC50 in assay [1] is 25.1 to 158 nM. The Ki in assay [2] was 0.0398 to 0.316 nM.

As to `Cc1cccc(-c2nccc(Nc3ccnc(Nc4ccc(NC(=O)C5CNC5)cc4)n3)n2)n1` [Compound 76, N-[4-[[4-[[2-(6-methyl-2-pyridyl)pyrimidin-4-yl]amino]pyrimidin-2-yl]amino]phenyl]azetidine-3-carboxamide], in assay [1], the IC50 was at most 20 nM. Also, in assay [2], the Ki was 0.0398 to 0.316 nM.

In the case of `Cc1cccc(-c2nccc(Nc3ccnc(Nc4ccc(NC(=O)C5CCN(C6CCOCC6)CC5)cc4)n3)n2)n1` [Compound 77, N-[4-[[4-[[2-(6-methyl-2-pyridyl)pyrimidin-4-yl]amino]pyrimidin-2-yl]amino]phenyl]-1-tetrahydropyran-4-yl-piperidine-4-carboxamide], the IC50 in assay [1] was 25.1 to 158 nM. Also, the Ki in assay [2] is 0.0398 to 0.316 nM.

Turning to `Cc1cccc(-c2nccc(Nc3ccnc(Nc4ccc(NC(=O)C5CCNC5)cc4)n3)n2)n1` (stereo not drawn) [Compound 78, N-[4-[[4-[[2-(6-methyl-2-pyridyl)pyrimidin-4-yl]amino]pyrimidin-2-yl]amino]phenyl]pyrrolidine-3-carboxamide], the IC50 in assay [1] was at most 20 nM. In addition, in assay [2], the Ki is 0.0398 to 0.316 nM.

`COc1cc(Nc2nccc(Nc3ccnc(-c4cccc(C)n4)n3)n2)ccc1N1CCOCC1` [Compound 79, N2-(3-methoxy-4-morpholino-phenyl)-N4-[2-(6-methyl-2-pyridyl)pyrimidin-4-yl]pyrimidine-2,4-diamine]: the IC50 in assay [1] was 25.1 to 158 nM. For the same compound, the Ki in assay [2] is 0.0398 to 0.316 nM.

Regarding `CCN1CCN(c2ccc(Nc3nccc(Nc4ccnc(-c5cccc(C)n5)n4)n3)cc2)CC1` [Compound 80, N2-[4-(4-ethylpiperazin-1-yl)phenyl]-N4-[2-(6-methyl-2-pyridyl)pyrimidin-4-yl]pyrimidine-2,4-diamine], the IC50 in assay [1] was 25.1 to 158 nM. In addition, the Ki in assay [2] was 0.0398 to 0.316 nM.

`Cc1cccc(-c2nccc(Nc3ccnc(Nc4ccc(C)c(CN5C[C@@H](C)N[C@@H](C)C5)c4)n3)n2)n1` [Compound 81, N4-[2-(6-methyl-2-pyridyl)pyrimidin-4-yl]-N2-[4-methyl-3-[[rac-(3R,5S)-3,5-dimethylpiperazin-1-yl]methyl]phenyl]pyrimidine-2,4-diamine]: the IC50 in assay [1] was 25.1 to 158 nM. Also, the Ki in assay [2] was 0.0398 to 0.316 nM.

Regarding `Cc1cccc(-c2nccc(Nc3ccnc(Nc4ccc(CC(=O)O)cc4)n3)n2)n1` [Compound 82, 2-[4-[[4-[[2-(6-methyl-2-pyridyl)pyrimidin-4-yl]amino]pyrimidin-2-yl]amino]phenyl]acetic acid], the IC50 in assay [1] was 1580 to 10000 nM. In assay [2], the Ki was 0.398 to 3.16 nM.

For the compound `COC(=O)C1CCCN(c2ccc(Nc3nccc(Nc4ccnc(-c5cccc(C)n5)n4)n3)cc2)C1` (stereo not drawn) [Compound 83, methyl 1-[4-[[4-[[2-(6-methyl-2-pyridyl)pyrimidin-4-yl]amino]pyrimidin-2-yl]amino]phenyl]piperidine-3-carboxylate], the IC50 in assay [1] was 25.1 to 158 nM. Moreover, the Ki in assay [2] is 0.0398 to 0.316 nM.

As to `Cc1cccc(-c2nccc(Nc3ccnc(Nc4cnn(CCN5CCOCC5)c4)n3)n2)n1` [Compound 84, N4-(2-(6-methylpyridin-2-yl)pyrimidin-4-yl)-N2-(1-(2-morpholinoethyl)-1H-pyrazol-4-yl)pyrimidine-2,4-diamine], the IC50 in assay [1] was 25.1 to 158 nM. The Ki in assay [2] was 0.0398 to 0.316 nM.

As for `Cc1cccc(-c2nccc(Nc3ccnc(Nc4cc(C(=O)OC5CCNCC5)cs4)n3)n2)n1` [Compound 85, 4-piperidyl 5-[[4-[[2-(6-methyl-2-pyridyl)pyrimidin-4-yl]amino]pyrimidin-2-yl]amino]thiophene-3-carboxylate], the IC50 in assay [1] is 25.1 to 158 nM. In addition, the Ki in assay [2] was 0.0398 to 0.316 nM.
